Structures can show the parent of a compound that is named as a salt.
What follows are compounds tested on Isolated guinea-pig taenia coli (assay: calcium-antagonistic activity: inhibition of CaCl2-induced contraction of isolated guinea-pig taenia coli). Conditions: Cavia porcellus, Ca^++ -free Krebs solution, 32° C., test compound 5 minutes before CaCl2 (3×10^-4 M), isotonic recording, read-out: IC50 (concentration of the test compound which elicited 50% inhibition of Ca^++ -induced contraction).
Assay type: cell-based
Protocol: (Method for mesurement of calcium-antagonistic activity) Isolated guinea-pig taenia coli was suspended in a 20 ml organ bath filled with Krebs solution at32° C. and bubbled with 5% carbon dioxide in oxygen. After equilibration, the muscle was suspended in Ca^++ -free Krebs solution. The muscle was then exposed to the test compound for 5 minutes before the addition of CaCl2, and the contraction induced by CaCl2 (3×10^-4 M) was recorded isotonically. The calcium-antagonistic activity was represented by the concentration of the test compound which elicited 50% inhibition (IC50) of Ca^++ -induced contraction.
COc1ccc(OCCCCN(C)CCOc2ccc3c(c2)OCO3)c(C2Sc3ccccc3N(C)C2=O)c1 (stereo not shown) [Compound A, 3,4-dihydro-2-[5-methoxy-2-[4-[N-methyl-N-[2-[(3,4-methylenedioxy)phenoxy]ethyl]amino]butoxy]phenyl]-4-methyl-3-oxo-2H-1,4-benzothiazine oxalate] was tested, and the IC50 was 320 nM.
Compound COc1ccc(OCCCN(C)CCOc2ccc3c(c2)OCO3)c(C2Sc3ccccc3N(C)C2=O)c1 (stereo not shown) [Compound B, 3,4-dihydro-2-[5-methoxy-2-[3-[N-methyl-N-[2-[(3,4-methylenedioxy)phenoxy]ethyl]amino]propoxy]phenyl]-4-methyl-3-oxo-2H-1,4-benzothiazine fumarate] has an IC50 of 240 nM.
Compound COc1ccc(OCCCCN(C)CCOc2ccc(OC)c(OC)c2)c(C2Sc3ccccc3N(C)C2=O)c1 (stereo not shown) [Compound C, 3,4-dihydro-2-[5-methoxy-2-[4-[N-methyl-N-[2-[(3,4-dimethoxy)phenoxy]ethyl]amino]butoxy]phenyl]-4-methyl-3-oxo-2H-1,4-benzothiazine oxalate] has an IC50 of 290 nM.
COc1ccc(OCCCCN(C)CCc2ccc(OC)c(OC)c2)c(C2Sc3ccccc3N(C)C2=O)c1 (stereo not shown) [Reference Compound, 3,4-dihydro-2-[5-methoxy-2-[4-[N-methyl-(3,4-dimethoxy)phenetylamino]butoxy]phenyl]-4-methyl-3-oxo-2H-1,4-benzothiazine oxalate, reference compound] showed an IC50 of 3200 nM.

— US4786635A, “Novel benzothiazine derivatives” (Santen Pharmaceutical Co., Ltd., priority 1985, dated 1988)
